Data from patent US5231091A, “Bis-arylphosphate ester antagonists of platelet activating factor” (priority 1992, dated 1993).
Structures can show the parent of a compound that is named as a salt.

How the values were obtained:
[1] = biological target: T1, PAF receptor (Oryctolagus cuniculus, UniProt G1TEI7); experiment: Inhibition of PAF-induced aggregation in rabbit platelet rich plasma; assay type: cell-based, rabbit (male New Zealand White); conditions: rabbit platelet rich plasma; PAF challenge 5E-8M; number of experiments in parentheses; read-out: IC50 inhibition of PAF-induced aggregation
T1 construct: endogenous in cells; host or cells: rabbit platelets (male New Zealand White)
T1 sequence (G1TEI7 1-342): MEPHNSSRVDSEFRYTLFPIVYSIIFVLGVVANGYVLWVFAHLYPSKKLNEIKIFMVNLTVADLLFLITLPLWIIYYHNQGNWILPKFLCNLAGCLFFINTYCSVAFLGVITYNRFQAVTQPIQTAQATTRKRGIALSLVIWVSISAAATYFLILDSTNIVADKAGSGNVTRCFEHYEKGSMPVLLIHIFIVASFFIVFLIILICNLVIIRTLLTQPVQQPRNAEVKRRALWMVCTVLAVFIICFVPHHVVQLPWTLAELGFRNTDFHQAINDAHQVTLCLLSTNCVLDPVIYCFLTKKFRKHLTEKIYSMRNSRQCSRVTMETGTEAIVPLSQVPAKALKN
Experimental: (§1) Test compounds were evaluated as PAF receptor antagonists in vitro by measuring inhibition of PAF (platelet activating factor) induced platelet aggregation. Platelet aggregation was measured by a modification of the method described in A. Wissner, et. al., J. Med. Chem., 27, 1174, 1984.
Approximately 120-240 ml of blood were collected by cardiac puncture from unanesthetized male New Zealand White rabbits (Whaley's Summit View Farms, Belvedere, N.J.) with the use of 3.2% sodium citrate anticoagulant (1 part of citrate/10 parts of blood). All syringes and pipets were plastic. The blood was gently mixed and immediately centrifuged at 800 rpm for 10-15 minutes at room temperature to recover the platelet rich plasma (PRP). Platelet poor plasma (PPP) was prepared by centrifuging PRP at 2800 rpm for 10 minutes at room temperature.
Dilutions (1:3000) of PRP in Isoton® diluent were made and platelet counts were determined on a Coulter Thrombocounter which was standardized with platelet reference standards (Interscience Platelet Control, Portland, Oreg.). PRP platelet counts were adjusted to approximately 400,000-500,000 platelets/μl by the addition of PPP.
(§2) L-PAF was obtained from Calbiochem. A stock solution of 1-2 E-3M was prepared in 10% ethanol in water or 100% methanol and serial working dilutions were made using phosphate buffered saline (PBS). 1-2 E-3M stock solutions of test compounds were prepared in 100% methanol and serially diluted in PBS. All solutions were made up in plastic tubes, stored on ice and protected from heat and light. Solutions were prepared fresh or frozen at -20° C. and used within 48 hours.
(§3) Incubation mixtures consisted of 400 μl PRP, 50 μl of PBS diluent or test compound and 50 μl of PAF agonist. More specifically, 400 μl of PRP was stabilized in a cuvette for 1-2 minutes at 37° C. in the aggregometer to achieve a stable baseline, then 50 μl of PBS or test compound, was added and incubated for 5 minutes before addition of the challenge concentration of PAF (final concentration of 5E-8M or 1E-7M, as determined from the dose response curve for PAF for that experiment). Aggregation was monitored for 5 minutes. Samples containing test compound or diluent were run simultaneously for comparison. Test compounds were initially evaluated at a screening concentration of 1E-5M.
(§4) The recording equipment consisted of a dual channel Chronolog aggregometer connected to a dual channel 10 MV full scale deflection Omniscribe chart recorder (Houston Instruments). […] The bead suspension was used to set the 0% light transmission mark and clear water was used to set the 100% light transmission mark. These limits defined a full scale deflection. The aggregation traces were analyzed by a digitizing method (C. Kohler and B. Zoltan, J. Pharm. Methods, 12, 113, 1984) with x, y coordinate data stored in a computer file. A suitable program computed parameters of interest such as the magnitude of aggregation.

[2] = biological target: T2, PAF receptor (Homo sapiens, UniProt P25105); experiment: Inhibition of PAF-induced aggregation in human platelet rich plasma; assay type: cell-based; conditions: PAF challenge 1E-6M, number of experiments in parentheses
T2 construct: Blood from healthy volunteers was collected; endogenous in cells; host or cells: human platelets (healthy volunteers)
T2 sequence (P25105 whole entry): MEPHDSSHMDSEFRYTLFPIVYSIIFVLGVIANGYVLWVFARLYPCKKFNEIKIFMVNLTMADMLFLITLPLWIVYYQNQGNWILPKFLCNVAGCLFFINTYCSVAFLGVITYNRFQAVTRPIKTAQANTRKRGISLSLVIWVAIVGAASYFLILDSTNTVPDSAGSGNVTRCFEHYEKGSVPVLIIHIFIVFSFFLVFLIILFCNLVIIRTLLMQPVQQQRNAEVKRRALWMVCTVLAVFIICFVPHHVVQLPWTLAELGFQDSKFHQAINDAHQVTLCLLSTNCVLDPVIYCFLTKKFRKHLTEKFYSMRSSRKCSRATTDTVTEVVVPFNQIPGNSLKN
Experimental: as §1, §2, §3, §4
In some experiments, human PRP was used instead of rabbit PRP. Blood from healthy volunteers was collected in Vacutainers® containing the Na citrate diluent and processed in a manner similar to rabbit blood to obtain the PRP. For these experiments, the challenge concentration of PAF was 1E-6M.

[3] = system: endotoxin induced mortality; experiment: Endotoxin induced shock and mortality in mice; assay type: in vivo, mouse (male Balb/c)
Description: The test compounds (PAF antagonists) were also efficacious when administered iv prior to a lethal iv injection of endotoxin (Table IX).

[4] = system: PAF induced lethality; experiment: PAF induced lethality in mice; assay type: in vivo; conditions: corrected for control lethality
Experimental: PAF given I.V. to mice causes an immediate hypotensive shock leading to death in 1 hour or less. Compounds were given intraperitoneally or P.O. at various times before the PAF challenge. Animals alive after 2 hours were counted and the activity of test compounds expressed as % survival corrected for any control (saline treated) animals which survived the PAF challenge.

[5] = system: PAF induced skin lesions; experiment: Guinea pig vascular permeability (skin lesion) model; assay type: in vivo, guinea pig (Hartley)
[6] = system: LPS induced hypotension; experiment: Endotoxin (LPS) induced hypotension in rats; assay type: in vivo, rat (male Wistar); conditions: anesthetized rats; 10 ug/kg intraarterially 5 minutes after LPS 15 mg/kg I.V.
Experimental: Bacterial cell wall lipopolysaccharide from E. coli strain 0111:B4 (Sigma #L-2630) was dissolved in saline at a concentration of 3.75 mg/ml and administered to rats at 15 mg/kg I.V. Test compounds were dissolved in saline at 1 mg/ml, diluted to 10 ug/ml, and injected intraarterially at 1 ml/kg (10 ug/kg). Male wistar strain rats were obtained from Charles River Labs and maintained according to ALAC standards. They were anesthetized with 30 mg/kg pentobarbital ip with supplementation as needed. The throat was opened, the left carotid artery was cannulated with PE-10 tubing and the trachea cannulated with 0.100 O.D. tubing. Ventilation was maintained by a Harvard Apparatus small animal pump at a rate sufficient to nearly abolish spontaneous respiration.

[7] = biological target: T1, PAF receptor; experiment: Inhibition of PAF-induced aggregation in washed rabbit platelets; assay type: cell-based; conditions: PAF challenge 5E-9M, number of experiments in parentheses
Experimental: as §1, §2
as §3, with “More” for “Incubation mixtures consisted of 400 μl PRP, 50 μl of PBS diluent or test compound and 50 μl of PAF agonist. More”, “400 μl of PRP was stabilized in a cuvette” left out, “1E-5M. […]” for “1E-5M.”

[8] = 10 mg/kg IP 2 hours prior to IP endotoxin
[9] = footnote c: I.P. 4 mg/kg 1 hour before PAF

Compound: CCCCCCCCCCCCOc1cc(C(C)(C)C)c(OP(=O)([O-])Oc2cccc(C[n+]3cccc4ccccc43)c2)cc1C(C)(C)C [1-[[3-[[[2,5-Bis(1,1-dimethylethyl)-4-(dodecyloxy)phenoxy] hydroxyphosphinyl]oxy]phenyl]methyl]quinolinium, hydroxide, inner salt]
- IC50 [1]: 1360 nM
- IC50 [2]: 47500 nM

Compound: CCCCCCCCCCCCCCOc1cccc(OP(=O)([O-])Oc2cccc(C[n+]3ccsc3)c2)c1OC [3-[[3-[[Hydroxy]2-methoxy-3-(tetradecyloxy)phenoxy]-phosphinyl]oxy]phenyl]methyl]-thiazolium, hydroxide inner salt]
- 24 hour survival, treated [3, 8]: 7/30
- 24 hour survival, treated ([3]; 30 mg/kg IP 2 hours prior to IP endotoxin, control 4/50): 12/50
- Survival after 24 hrs., treated ([3]; Table IX, 10 mg/kg iv prior to iv endotoxin, footnote prints IP, control 0/20): 4/20
- PAF induced lethality, % protection ([4]; I.P. 10 mg/kg): 12%
- IC50 [1]: 7500 nM
- PAF induced skin lesions, % of control [5, 9]: 75%
- IC50 [2]: 26400 nM
- % reversal of LPS induced hypotension (fall in mean arterial pressure) [6]: 89%

Compound: CCCCCCCCCCCCOc1cc(C(C)(C)C)c(OP(=O)([O-])Oc2cccc(C[n+]3ccsc3)c2)cc1C(C)(C)C [3-[[3-[[[2,5-Bis(1,1-dimethylethyl)-4-(dodecyloxy)phenoxy]hydroxyphosphinyl]oxy]phenyl]methyl]thiazolium, hydroxide, inner salt]
- IC50 [7]: 2.12 nM
- 24 hour survival, treated [3, 8]: 4/20
- 24 hour survival, treated ([3]; 20 mg/kg IP 2 hours prior to IP endotoxin): 6/20
- 24 hour survival, treated ([3]; 40 mg/kg IP 2 hours prior to IP endotoxin): 6/20
- PAF induced lethality, % protection [4, 9]: 27%
- PAF induced skin lesions, % of control ([5]; footnote d: P.O. 5 mg/kg 4 hours before PAF): 49%
- IC50 [2]: 1930 nM

Compound: CCCCCCCCCCCCCCCCOc1cccc(OP(=O)([O-])Oc2cccc(C[n+]3ccsc3)c2)c1C [3-[[3-[[[3-(Hexadecyloxy)-2-methylphenoxy]hydroxyphosphinyl]oxy]phenyl]methyl]-thiazolium, hydroxide, inner salt]
- IC50 [1]: 2650 nM
- IC50 [2]: 119 nM

Compound: CCCCCCCCCCCCCCCCOc1cccc(OP(=O)([O-])Oc2cccc(C[n+]3ccsc3)c2)c1 [3-[[3-[[[3-(Hexadecyloxy)phenoxy]hydroxyphosphinyl]-oxy]phenyl]methyl]-thiazolium, hydroxide, inner salt]
- IC50 [1]: 2130 nM
- IC50 [2]: 2500 nM
